# Patent publication US20230071840A1, “HETEROCYCLIC GLP-1 AGONISTS” (Gasherbrum Bio, Inc., priority 2020, published 2023)
# Biological target: GLP-1 Receptor (Homo sapiens, UniProt P43220)
# Assay: GLP-1R agonist cAMP stimulation assay (HEK293/GLP1R/CRE-LUC cells, cAMP dynamic 2 kit)
# Assay type: cell-based
# Conditions: HEK293/CRE-Luc cell line stably expressing the GLP-1 Receptor; 30 min incubation at 37° C.; read-out: GLP1R cAMP Stimulation DR: EC50
# Experimental: Activation of GLP-1 receptor is known to stimulate cyclic AMP (cAMP) production in cells which indicates primary coupling to the Gas subunit of the G protein heterotrimeric complex.
# To optimize functional activity directed toward Gas coupling, a HEK293/CRE-Luc cell line developed by HDB stably expressing the GLP-1 Receptor was used. […] Seal the plate and incubate at 37° C. with 5% CO2 for 30 min.
# After incubation the cAMP assay signal was generated using cAMP dynamic 2 Kit (Cisbio). 5 μL cAMP-d2 working solution was added to each well, followed with 5 μL Anti-cAMP antibody-cryptate working solution added to each well using ThermoFisher Multidrop Combi. Incubate at room temperature for 1 hour protected from light.
# % Activity=[…]×(mean RLU of test sample−mean RLU of vehicle control)/(mean RLU of MAX control−mean RLU of vehicle control))
# Sequence of GLP-1 Receptor (P43220 24-463, species assumed): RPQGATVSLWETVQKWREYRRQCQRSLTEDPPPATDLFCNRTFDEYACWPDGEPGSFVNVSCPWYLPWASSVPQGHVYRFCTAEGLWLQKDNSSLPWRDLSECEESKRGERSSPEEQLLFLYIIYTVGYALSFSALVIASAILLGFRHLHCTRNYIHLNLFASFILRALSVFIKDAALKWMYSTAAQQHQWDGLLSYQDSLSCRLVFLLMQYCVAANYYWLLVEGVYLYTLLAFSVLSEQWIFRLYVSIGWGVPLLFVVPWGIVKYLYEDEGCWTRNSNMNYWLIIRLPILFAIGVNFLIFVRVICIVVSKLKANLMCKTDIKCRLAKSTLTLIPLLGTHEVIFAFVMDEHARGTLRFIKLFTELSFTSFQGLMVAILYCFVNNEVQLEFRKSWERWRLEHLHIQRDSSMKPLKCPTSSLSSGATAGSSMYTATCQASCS
row,Structure (SMILES),EC50
1,"COCCn1c(C[C@H]2CC[C@H](Oc3ccnc(Cc4ccc(Cl)cc4)n3)CC2)nc2ccc(C(=O)O)nc21 [Compound 179a, 3-(2-methoxyethyl)-2-{[trans-4-({2-[(4-chlorophenyl)methyl]pyrimidin-4-yl}oxy)cyclohexyl]methyl}-3H-imidazo[4,5-b]pyridine-5-carboxylic acid]",2.8 nM
2,"N#Cc1ccc(Cc2cccc(OC3CCN(Cc4nc5ccc(C(=O)O)nc5n4C[C@@H]4CCO4)CC3)n2)c(F)c1 [Compound 136a, 2-{[4-({6-[(4-cyano-2-fluorophenyl)methyl]pyridin-2-yl}oxy)piperidin-1-yl]methyl}-3-{[(2S)-oxetan-2-yl]methyl}-3H-imidazo[4,5-b]pyridine-5-carboxylic acid]",0.44 nM
3,"O=C(O)c1ccc2nc(CN3CCC(c4cccc5nc(Cc6ccc(Cl)cc6F)oc45)CC3)n(C[C@@H]3CCO3)c2n1 [Compound 143a, (S)-2-((4-(2-(4-chloro-2-fluorobenzyl)benzo[d]oxazol-7-yl)piperidin-1-yl)methyl)-3-(oxetan-2-ylmethyl)-3H-imidazo[4,5-b]pyridine-5-carboxylic acid]",0.53 nM
4,"CCOCCn1c(CN2CCC(Oc3ccnc(Cc4ccc(Cl)cc4)n3)CC2)nc2ccc(C(=O)O)nc21 [Compound 194, 2-((4-((2-(4-chlorobenzyl)pyrimidin-4-yl)oxy)piperidin-1-yl)methyl)-3-(2-ethoxyethyl)-3H-imidazo[4,5-b]pyridine-5-carboxylic acid]",2.9 nM
5,"O=C(O)c1ccc2nc(Cc3ccc(Oc4ccnc(Cc5ccc(Cl)cc5)n4)cc3)n(C[C@@H]3CCO3)c2c1 [Compound 187a, 2-{[4-({2-[(4-chlorophenyl)methyl]pyrimidin-4-yl}oxy)phenyl]methyl}-1-{[(2S)-oxetan-2-yl]methyl}-1H-1,3-benzodiazole-6-carboxylic acid]",1.3 nM
6,"NC(=O)c1ccc2nc(CN3CCC(Oc4ccnc(Cc5ccc(Cl)cc5)n4)CC3)n(C[C@@H]3CCO3)c2n1 [Compound 200a, (S)-2-((4-((2-(4-chlorobenzyl)pyrimidin-4-yl)oxy)piperidin-1-yl)methyl)-3-(oxetan-2-ylmethyl)-3H-imidazo[4,5-b]pyridine-5-carboxamide]",85 nM
7,"O=C(O)c1ccc2nc(CN3CCC(Oc4cccc(Cc5cccc(Cl)c5)n4)CC3)n(C[C@@H]3CCO3)c2n1 [Compound 125a, (S)-2-((4-((6-(3-chlorobenzyl)pyridin-2-yl)oxy)piperidin-1-yl)methyl)-3-(oxetan-2-ylmethyl)-3H-imidazo[4,5-b]pyridine-5-carboxylic acid]",1.4 nM
8,"O=C(O)c1ccc2nc(CN3CCC(Oc4ccc(=O)n(Cc5ccc(Cl)cc5F)n4)CC3)n(C[C@@H]3CCO3)c2n1 [Compound 144a, 2-{[4-({1-[(4-chloro-2-fluorophenyl)methyl]-6-oxo-1,6-dihydropyridazin-3-yl}oxy)piperidin-1-yl]methyl}-3-{[(2S)-oxetan-2-yl]methyl}-3H-imidazo[4,5-b]pyridine-5-carboxylic acid]",4.8 nM
9,"O=C(O)c1ccc2nc(CN3CCC(Oc4ccnc(Cc5ccc(C(F)(F)F)cc5F)n4)CC3)n(C[C@@H]3CCO3)c2n1 [Compound 163a, 2-({4-[(2-{[2-fluoro-4-(trifluoromethyl)phenyl]methyl}pyrimidin-4-yl)oxy]piperidin-1-yl}methyl)-3-{[(2S)-oxetan-2-yl]methyl}-3H-imidazo[4,5-b]pyridine-5-carboxylic acid]",0.11 nM
10,"O=C(O)c1ccc2nc(CN3CCC(Oc4cccc(Cc5ccc(Cl)cc5)c4F)CC3)n(C[C@@H]3CCO3)c2n1 [Compound 157a, 2-[(4-{3-[(4-chlorophenyl)methyl]-2-fluorophenoxy}piperidin-1-yl)methyl]-3-{[(2S)-oxetan-2-yl]methyl}-3H-imidazo[4,5-b]pyridine-5-carboxylic acid]",42 nM

# Further compounds by falling EC50, results first:
row,EC50,Structure (SMILES)
1,68 nM,"O=C(O)c1ccc2nc(CN3CCC(Oc4ccc(F)c(Cc5ccc(Cl)cc5F)n4)CC3)n(C[C@@H]3CCO3)c2n1 [Compound 150a, (S)-2-((4-((6-(4-chloro-2-fluorobenzyl)-5-fluoropyridin-2-yl)oxy)piperidin-1-yl)methyl)-3-(oxetan-2-ylmethyl)-3H-imidazo[4,5-b]pyridine-5-carboxylic acid]"
2,6.5 nM,"O=C(O)c1ccc2nc(CN3CCC(Cc4cccc(Oc5ccc(Cl)cc5F)n4)CC3)n(C[C@@H]3CCO3)c2n1 [Compound 121a, 2-[(4-{[6-(4-chloro-2-fluorophenoxy)pyridin-2-yl]methyl}piperidin-1-yl)methyl]-3-{[(2S)-oxetan-2-yl]methyl}-3H-imidazo[4,5-b]pyridine-5-carboxylic acid]"
3,1.8 nM,"N#Cc1ccc(Cc2cccc(OC3CCN(Cc4nc5ccc(C(=O)O)cc5n4C[C@@H]4CCO4)CC3)n2)c(F)c1 [Compound 135a, 2-{[4-({6-[(4-cyano-2-fluorophenyl)methyl]pyridin-2-yl}oxy)piperidin-1-yl]methyl}-1-{[(2S)-oxetan-2-yl]methyl}-1H-1,3-benzodiazole-6-carboxylic acid]"
4,1 nM,"O=C(O)c1ccc2nc(CN3CCC(Oc4ccnc(Cc5ccc(Cl)cc5C(F)(F)F)n4)CC3)n(C[C@@H]3CCO3)c2n1 [Compound 166a, 2-({4-[(2-{[4-chloro-2-(trifluoromethyl)phenyl]methyl}pyrimidin-4-yl)oxy]piperidin-1-yl}methyl)-3-{[(2S)-oxetan-2-yl]methyl}-3H-imidazo[4,5-b]pyridine-5-carboxylic acid]"
5,0.85 nM,"O=C(O)c1ccc2nc(CN3CCC(Oc4nn(Cc5ccc(Cl)cc5F)cc4Cl)CC3)n(C[C@@H]3CCO3)c2n1 [Compound 183a, 2-{[4-({4-chloro-1-[(4-chloro-2-fluorophenyl)methyl]-1H-pyrazol-3-yl}oxy)piperidin-1-yl]methyl}-3-{[(2S)-oxetan-2-yl]methyl}-3H-imidazo[4,5-b]pyridine-5-carboxylic acid]"
6,0.69 nM,"O=C(O)c1ccc2nc(Cc3ccc(Oc4nc(Cc5ccc(Cl)cc5)ncc4F)cc3)n(C[C@@H]3CCO3)c2n1 [Compound 189a, 2-{[4-({2-[(4-chlorophenyl)methyl]-5-fluoropyrimidin-4-yl}oxy)phenyl]methyl}-3-{[(2S)-oxetan-2-yl]methyl}-3H-imidazo[4,5-b]pyridine-5-carboxylic acid]"
7,0.6 nM,"COC(C)Cn1c(CN2CCC(Oc3ccnc(Cc4ccc(Cl)cc4)n3)CC2)nc2ccc(C(=O)O)nc21 (stereo not shown) [Compound 195, 2-((4-((2-(4-chlorobenzyl)pyrimidin-4-yl)oxy)piperidin-1-yl)methyl)-3-(2-methoxypropyl)-3H-imidazo[4,5-b]pyridine-5-carboxylic acid]"
8,0.47 nM,"O=C(O)c1ccc2nc(CN3CCC(n4ncc5ccc(Cc6ccc(Cl)cc6F)nc54)CC3)n(C[C@@H]3CCO3)c2n1 [Compound 185a, 2-[(4-{6-[(4-chloro-2-fluorophenyl)methyl]-1H-pyrazolo[3,4-b]pyridin-1-yl}piperidin-1-yl)methyl]-3-{[(2S)-oxetan-2-yl]methyl}-3H-imidazo[4,5-b]pyridine-5-carboxylic acid]"
9,0.29 nM,"O=C(O)c1ccc2nc(Cc3ccc(Oc4nc(Cc5ccc(Cl)cc5)ncc4F)cc3F)n(C[C@@H]3CCO3)c2c1 [Compound 191a, 2-{[4-({2-[(4-chlorophenyl)methyl]-5-fluoropyrimidin-4-yl}oxy)-2-fluorophenyl]methyl}-1-{[(2S)-oxetan-2-yl]methyl}-1H-1,3-benzodiazole-6-carboxylic acid]"
10,0.14 nM,"O=C(O)c1ccc2nc(C[C@H]3CC[C@H](Oc4cccc(Cc5ccc(Cl)cc5F)n4)CC3)n(C[C@@H]3CCO3)c2n1 [Compound 174b, 3-{[(2S)-oxetan-2-yl]methyl}-2-{[trans-4-({6-[(4-chloro-2-fluorophenyl)methyl]pyridin-2-yl}oxy)cyclohexyl]methyl}-3H-imidazo[4,5-b]pyridine-5-carboxylic acid]"
11,0.13 nM,"O=C(O)c1ccc2nc(CN3CCC(Oc4ccnc(Cc5ccc(Cl)c(Cl)c5)n4)CC3)n(C[C@@H]3CCO3)c2n1 [Compound 167a, 2-{[4-({2-[(3,4-dichlorophenyl)methyl]pyrimidin-4-yl}oxy)piperidin-1-yl]methyl}-3-{[(2S)-oxetan-2-yl]methyl}-3H-imidazo[4,5-b]pyridine-5-carboxylic acid]"
12,0.1 nM,"N#CC1(Cn2c(C[C@H]3CC[C@H](Oc4ccnc(Cc5ccc(Cl)cc5)n4)CC3)nc3ccc(C(=O)O)nc32)CC1 [Compound 178a, 3-[(1-cyanocyclopropyl)methyl]-2-{[trans-4-({2-[(4-chlorophenyl)methyl]pyrimidin-4-yl}oxy)cyclohexyl]methyl}-3H-imidazo[4,5-b]pyridine-5-carboxylic acid]"
13,0.063 nM,"O=C(O)c1ccc2nc(C[C@H]3CC[C@H](Oc4ccnc(Cc5ccc(Cl)cc5F)n4)CC3)n(C[C@@H]3CCO3)c2n1 [Compound 175b, 3-{[(2S)-oxetan-2-yl]methyl}-2-{[trans-4-({2-[(4-chloro-2-fluorophenyl)methyl]pyrimidin-4-yl}oxy)cyclohexyl]methyl}-3H-imidazo[4,5-b]pyridine-5-carboxylic acid]"
14,0.038 nM,"O=C(O)c1ccc2nc(CN3CCC(Oc4ccnc(Cc5ccc(Cl)cc5F)n4)CC3)n(C[C@@H]3CCO3)c2n1 [Compound 113a, 2-{[4-({2-[(4-chloro-2-fluorophenyl)methyl]pyrimidin-4-yl}oxy)piperidin-1-yl]methyl}-3-{[(2S)-oxetan-2-yl]methyl}-3H-imidazo[4,5-b]pyridine-5-carboxylic acid]"

# Same assay, conditions: HEK293/CRE-Luc cell line stably expressing the GLP-1 Receptor; 30 min incubation at 37° C.; read-out: GLP1R cAMP Stimulation DR: pEC50 (converted)
row,EC50,Structure (SMILES)
1,0.1 nM,"O=C(O)c1ccc2nc(CN3CCC(Oc4ccnc(Cc5ccc(C(F)(F)F)cc5F)n4)CC3)n(C[C@@H]3CCO3)c2n1 [Compound 163a, 2-({4-[(2-{[2-fluoro-4-(trifluoromethyl)phenyl]methyl}pyrimidin-4-yl)oxy]piperidin-1-yl}methyl)-3-{[(2S)-oxetan-2-yl]methyl}-3H-imidazo[4,5-b]pyridine-5-carboxylic acid]"
